± gives the uncertainty stated by the source.
Experiment: xn = mol fraction of the nth substance listed
Settings: 101 kPa, x2 = 0

CS(C)=O + CCC[N+]1(C)CCCC1.O=S(=O)([N-]S(=O)(=O)C(F)(F)F)C(F)(F)F
viscosity (298.15 K): 2.118 ± 0.085 mPa·s
viscosity (308.15 K): 1.758 ± 0.071 mPa·s
viscosity (318.15 K): 1.489 ± 0.06 mPa·s
viscosity (328.15 K): 1.28 ± 0.052 mPa·s
viscosity (338.15 K): 1.116 ± 0.045 mPa·s
viscosity (348.15 K): 0.983 ± 0.04 mPa·s
viscosity (358.15 K): 0.874 ± 0.036 mPa·s

— the CheMixHub ionic liquid set
